# Experimental data from ChEMBL document CHEMBL3885881, “DrugMatrix”.
# Species: Rattus norvegicus
# Assay: DrugMatrix - Regimen: Daily Repeat
# Assay type: toxicity, organism-based, Sprague-Dawley
# Set-up: regimen Daily Repeat, gender Male, age 6-8 weeks
# Conditions: in vivo, po, route oral GAVAGE, vehicle .5 % CMC; for ABSOLUTE BASOPHIL / ABSOLUTE EOSINOPHIL / ABSOLUTE LYMPHOCYTE / ABSOLUTE MONOCYTE / ABSOLUTE SEGMENTED NEUTROPHIL / BASOPHIL / EOSINOPHIL / ERYTHROCYTE COUNT / HEMATOCRIT / HEMOGLOBIN / LEUKOCYTE COUNT / LYMPHOCYTE / MEAN CORPUSCULAR HEMOGLOBIN / MEAN CORPUSCULAR HEMOGLOBIN CONCENTRATION / MEAN CORPUSCULAR VOLUME / MONOCYTE / NEUTROPHIL / NUCLEATED RED BLOOD CELLS / PLATELET COUNT: tissue Blood; for ALANINE AMINOTRANSFERASE / ALBUMIN / ALKALINE PHOSPHATASE / ASPARTATE AMINOTRANSFERASE / BLOOD UREA NITROGEN / CARBON DIOXIDE / CHLORIDE / CHOLESTEROL / CREATINE PHOSPHOKINASE / CREATININE / GLUCOSE / LACTATE DEHYDROGENASE / LIPASE / PHOSPHORUS / POTASSIUM / SODIUM / TOTAL BILIRUBIN / TOTAL PROTEIN / URIC ACID: tissue Plasma
# [1] = 100 mg/kg, 120 h, dose level Low, time 5 day
# [2] = 1500 mg/kg, 72 h, dose level High, time 3 day
# [3] = 1500 mg/kg, 120 h, dose level High, time 5 day
smiles,measurement,setting,value
CO[C@H]1/C=C/O[C@@]2(C)Oc3c(C)c(O)c4c(c3C2=O)C2=NC3(CCN(CC(C)C)CC3)NC2=C(NC(=O)/C(C)=C\C=C\[C@H](C)[C@H](O)[C@@H](C)[C@@H](O)[C@@H](C)[C@H](OC(C)=O)[C@@H]1C)C4=O [RIFABUTIN],ABSOLUTE BASOPHIL,[1],0 CELLS/uL
same,ABSOLUTE EOSINOPHIL,[1],0 CELLS/uL
same,ABSOLUTE LYMPHOCYTE,[1],10855 CELLS/uL
same,ABSOLUTE MONOCYTE,[1],0 CELLS/uL
same,ABSOLUTE SEGMENTED NEUTROPHIL,[1],1111.67 CELLS/uL
same,BASOPHIL,[1],0%
same,EOSINOPHIL,[1],0%
same,ERYTHROCYTE COUNT,[1],5.53 x10E6/uL
same,HEMATOCRIT,[1],35%
same,HEMOGLOBIN,[1],13.9 G/DL
same,LEUKOCYTE COUNT,[1],11.97 x10E3/uL
same,LYMPHOCYTE,[1],90.67%
same,MEAN CORPUSCULAR HEMOGLOBIN,[1],25.2 pg
same,MEAN CORPUSCULAR HEMOGLOBIN CONCENTRATION,[1],39.77 G/DL
same,MEAN CORPUSCULAR VOLUME,[1],63.37 fL
same,MONOCYTE,[1],0%
same,NEUTROPHIL,[1],9.33%
same,NUCLEATED RED BLOOD CELLS,[1],0 /100WBC
same,PLATELET COUNT,[1],1189 x10E3/uL
same,ALANINE AMINOTRANSFERASE,[1],54.33 u/L
same,ALBUMIN,[1],4.2 G/DL
same,ALKALINE PHOSPHATASE,[1],319 u/L
same,ASPARTATE AMINOTRANSFERASE,[1],78.33 u/L
same,BLOOD UREA NITROGEN,[1],16.67 mg/dL
same,CARBON DIOXIDE,[1],24.67 mmol/L
same,CHLORIDE,[1],102.33 MEQ/L
same,CHOLESTEROL,[1],81.33 mg/dL
same,CREATINE PHOSPHOKINASE,[1],352 u/L
same,CREATININE,[1],0.18 mg/dL
same,GLUCOSE,[1],154.67 mg/dL
same,LACTATE DEHYDROGENASE,[1],179 u/L
same,LIPASE,[1],9.33 u/L
same,PHOSPHORUS,[1],12.83 mg/dL
same,POTASSIUM,[1],6.38 MEQ/L
same,SODIUM,[1],144.7 MEQ/L
same,TOTAL BILIRUBIN,[1],0.23 mg/dL
same,TOTAL PROTEIN,[1],6 G/DL
same,URIC ACID,[1],1.6 mg/dL
same,ABSOLUTE BASOPHIL,[2],0 CELLS/uL
same,ABSOLUTE EOSINOPHIL,[2],0 CELLS/uL
same,ABSOLUTE LYMPHOCYTE,[2],11965.67 CELLS/uL
same,ABSOLUTE MONOCYTE,[2],420.67 CELLS/uL
same,ABSOLUTE SEGMENTED NEUTROPHIL,[2],2847 CELLS/uL
same,BASOPHIL,[2],0%
same,EOSINOPHIL,[2],0%
same,ERYTHROCYTE COUNT,[2],6.58 x10E6/uL
same,HEMATOCRIT,[2],40.53%
same,HEMOGLOBIN,[2],15.87 G/DL
same,LEUKOCYTE COUNT,[2],15.23 x10E3/uL
same,LYMPHOCYTE,[2],77.33%
same,MEAN CORPUSCULAR HEMOGLOBIN,[2],24.13 pg
same,MEAN CORPUSCULAR HEMOGLOBIN CONCENTRATION,[2],39.17 G/DL
same,MEAN CORPUSCULAR VOLUME,[2],61.6 fL
same,MONOCYTE,[2],2.67%
same,NEUTROPHIL,[2],20%
same,NUCLEATED RED BLOOD CELLS,[2],0 /100WBC
same,PLATELET COUNT,[2],1375.67 x10E3/uL
same,ALANINE AMINOTRANSFERASE,[2],80 u/L
same,ALBUMIN,[2],4.43 G/DL
same,ALKALINE PHOSPHATASE,[2],350.33 u/L
same,ASPARTATE AMINOTRANSFERASE,[2],113.67 u/L
same,BLOOD UREA NITROGEN,[2],14 mg/dL
same,CARBON DIOXIDE,[2],31 mmol/L
same,CHLORIDE,[2],96.33 MEQ/L
same,CHOLESTEROL,[2],148.67 mg/dL
same,CREATINE PHOSPHOKINASE,[2],217 u/L
same,CREATININE,[2],0.21 mg/dL
same,GLUCOSE,[2],160 mg/dL
same,LACTATE DEHYDROGENASE,[2],259 u/L
same,LIPASE,[2],11 u/L
same,PHOSPHORUS,[2],12.37 mg/dL
same,POTASSIUM,[2],5.97 MEQ/L
same,SODIUM,[2],145.43 MEQ/L
same,TOTAL BILIRUBIN,[2],0.47 mg/dL
same,TOTAL PROTEIN,[2],6.3 G/DL
same,URIC ACID,[2],1.7 mg/dL
same,ABSOLUTE BASOPHIL,[3],0 CELLS/uL
same,ABSOLUTE EOSINOPHIL,[3],0 CELLS/uL
same,ABSOLUTE LYMPHOCYTE,[3],11388 CELLS/uL
same,ABSOLUTE MONOCYTE,[3],273 CELLS/uL
same,ABSOLUTE SEGMENTED NEUTROPHIL,[3],2639 CELLS/uL
same,BASOPHIL,[3],0%
same,EOSINOPHIL,[3],0%
same,ERYTHROCYTE COUNT,[3],6.24 x10E6/uL
same,HEMATOCRIT,[3],38.2%
same,HEMOGLOBIN,[3],15.25 G/DL
same,LEUKOCYTE COUNT,[3],14.3 x10E3/uL
same,LYMPHOCYTE,[3],79%
same,MEAN CORPUSCULAR HEMOGLOBIN,[3],24.5 pg
same,MEAN CORPUSCULAR HEMOGLOBIN CONCENTRATION,[3],39.9 G/DL
same,MEAN CORPUSCULAR VOLUME,[3],61.45 fL
same,MONOCYTE,[3],2%
same,NEUTROPHIL,[3],19%
same,NUCLEATED RED BLOOD CELLS,[3],0 /100WBC
same,PLATELET COUNT,[3],1196.5 x10E3/uL
same,ALANINE AMINOTRANSFERASE,[3],114 u/L
same,ALBUMIN,[3],3.85 G/DL
same,ALKALINE PHOSPHATASE,[3],310.5 u/L
same,ASPARTATE AMINOTRANSFERASE,[3],198.5 u/L
same,BLOOD UREA NITROGEN,[3],19 mg/dL
same,CARBON DIOXIDE,[3],24.5 mmol/L
same,CHLORIDE,[3],97.5 MEQ/L
same,CHOLESTEROL,[3],104 mg/dL
same,CREATINE PHOSPHOKINASE,[3],397.5 u/L
same,CREATININE,[3],0.18 mg/dL
same,GLUCOSE,[3],120.5 mg/dL
same,LACTATE DEHYDROGENASE,[3],645 u/L
same,LIPASE,[3],12.5 u/L
same,PHOSPHORUS,[3],11 mg/dL
same,POTASSIUM,[3],5.77 MEQ/L
same,SODIUM,[3],142.7 MEQ/L
same,TOTAL BILIRUBIN,[3],0.6 mg/dL
same,TOTAL PROTEIN,[3],5.65 G/DL
same,URIC ACID,[3],1.35 mg/dL
